Values of other authors as cited in patent US20260285945A1, “OMOMYC AND KRAS INHIBITORS COMBINATION THERAPY FOR THE TREATMENT OF CANCER” (PEPTOMYC, S.L., priority 2023, published 2026).

Test system: cancer cell proliferation
Settings: single agent; background of the invention

SMILES: CNCc1ccccc1-c1csc([C@@H](C)Nc2nc(C)nc3cc(OC)c(OC)cc23)c1 [BAY-293]
- Inhibition of cancer cell proliferation, potency: weak potency
